Data reported in ChEMBL document CHEMBL4004864, “Synthetic analogs of rhamnolipids modulate structured biofilms formed by rhamnolipid-nonproducing mutant of Pseudomonas aeruginosa” (Bioorg Med Chem, 2017).
Calls of active or inactive are those of the source. No cut-off for these calls is given here.

Legend:
Pseudomonas aeruginosa [1] = assay: Induction of structured biofilm formation in eGFP-fused Pseudomonas aeruginosa PW6886 harboring rhlA-E08::ISphoA/hah mutant at 20 uM after 24 hrs under shaking condition by confocal laser scanning microscopy; assay type: functional
Pseudomonas aeruginosa [2] = assay: Induction of biofilm formation in eGFP-fused Pseudomonas aeruginosa PW6886 harboring rhlA-E08::ISphoA/hah mutant at 20 to 40 uM by COMSTAT based quantification relative to control; assay type: functional
Pseudomonas aeruginosa [3] = assay: Inhibition of biofilm formation in eGFP-fused Pseudomonas aeruginosa PW6886 harboring rhlA-E08::ISphoA/hah mutant at 340 uM by COMSTAT based quantification relative to control; assay type: functional
Pseudomonas aeruginosa [4] = assay: (§1) Antibiofilm activity against Pseudomonas aeruginosa PW6886 harboring rhlA-E08::ISphoA/hah mutant preformed biofilms assessed as reduction in biofilm bacterial count at 20 to 40 uM preincubated for 24 hrs under non-shaking condition followed by second incubation for 1 hr after compound washout and subsequent compound addition and measured after 1 hr incubation under non-shaking condition by crystal-violet staining based assay; assay type: functional
Pseudomonas aeruginosa [5] = assay: Induction of biofilm formation in Pseudomonas aeruginosa PW6886 harboring rhlA-E08::ISphoA/hah mutant at 20 to 170 uM after 24 hrs under non-shaking condition by crystal-violet staining based assay; assay type: functional
Pseudomonas aeruginosa [6] = assay: Inhibition of biofilm formation in eGFP-fused Pseudomonas aeruginosa PW6886 harboring rhlA-E08::ISphoA/hah mutant at 340 uM after 48 hrs under shaking condition by confocal laser scanning microscopy; assay type: functional
Pseudomonas aeruginosa [7] = assay: Bactericidal activity against Pseudomonas aeruginosa PW6886 harboring rhlA-E08::ISphoA/hah mutant at 20 to 340 uM under shaking condition
Pseudomonas aeruginosa [8] = assay: Induction of biofilm formation in eGFP-fused Pseudomonas aeruginosa PW6886 harboring rhlA-E08::ISphoA/hah mutant at 20 uM after 48 hrs under shaking condition by confocal laser scanning microscopy; assay type: functional
Pseudomonas aeruginosa [9] = assay: as §1, with “340” for “20 to 40”; assay type: functional
Pseudomonas aeruginosa [10] = assay: Induction of biofilm formation in Pseudomonas aeruginosa PW6886 harboring rhlA-E08::ISphoA/hah mutant expressing EGFP at 40 uM after 24 hrs under non-shaking condition by confocal laser scanning microscopy; assay type: functional
Pseudomonas aeruginosa [11] = assay: Inhibition of biofilm formation in eGFP-fused Pseudomonas aeruginosa PW6886 harboring rhlA-E08::ISphoA/hah mutant at 340 uM after 24 hrs under shaking condition by confocal laser scanning microscopy; assay type: functional
Pseudomonas aeruginosa [12] = assay: Induction of tendril formation in Pseudomonas aeruginosa PAO1 at > 85 uM after 24 hrs; assay type: functional
Pseudomonas aeruginosa [13] = assay: Induction of swarming motility of Pseudomonas aeruginosa PW6886 harboring rhlA-E08::ISphoA/hah mutant at 5 to 100 uM after 24 hrs; assay type: functional
Pseudomonas aeruginosa [14] = assay: Induction of swarming motility of wild-type Pseudomonas aeruginosa PAO1 at 50 uM after 24 hrs; assay type: functional
Pseudomonas aeruginosa [15] = assay: Induction of tendril formation in Pseudomonas aeruginosa PW6886 harboring rhlA-E08::ISphoA/hah mutant at 5 to 100 uM after 24 hrs; assay type: functional
Pseudomonas aeruginosa [16] = assay: Inhibition of biofilm formation in Pseudomonas aeruginosa PW6886 harboring rhlA-E08::ISphoA/hah mutant at 340 uM under non-shaking condition after 24 hrs by crystal-violet staining based assay; assay type: functional
Pseudomonas aeruginosa [17] = assay: as §1, with “340” for “40”; assay type: functional
Pseudomonas aeruginosa [18] = assay: Induction of biofilm formation in Pseudomonas aeruginosa PW6886 harboring rhlA-E08::ISphoA/hah mutant expressing EGFP at 20 to 340 uM after 48 hrs under shaking condition by confocal laser scanning microscopy; assay type: functional
Pseudomonas aeruginosa [19] = assay: Effect on biofilm formation in Pseudomonas aeruginosa PW6886 harboring rhlA-E08::ISphoA/hah mutant at 10 to 340 uM after 24 hrs under non-shaking condition by crystal-violet staining based assay; assay type: functional
Pseudomonas aeruginosa [20] = assay: Induction of swarming motility of wild-type Pseudomonas aeruginosa PAO1 at 5 to 100 uM after 24 hrs; assay type: functional
Pseudomonas aeruginosa [21] = assay: Inhibition of biofilm formation in Pseudomonas aeruginosa PW6886 harboring rhlA-E08::ISphoA/hah mutant expressing EGFP at 20 to 340 uM after 48 hrs under shaking condition by confocal laser scanning microscopy; assay type: functional
Pseudomonas aeruginosa [22] = assay: Induction of biofilm formation in Pseudomonas aeruginosa PW6886 harboring rhlA-E08::ISphoA/hah mutant expressing EGFP assessed as reduction in exopolymers covering the bottom of well at 20 to 85 uM after 24 hrs under shaking condition by confocal laser scanning microscopy; assay type: functional

In the case of `O=C(c1ccccc1)c1ccc(COCCCCCCCCCCO[C@@H]2O[C@H](CO)[C@@H](O[C@H]3O[C@H](CO)[C@@H](O)[C@H](O)[C@H]3O)[C@H](O)[C@H]2O)cc1`, the Activity (Pseudomonas aeruginosa [1]) was “Active”, the Activity (Pseudomonas aeruginosa [2]) was 10 - 60% and the inhibition at 340 µM (Pseudomonas aeruginosa [3]) was 80%. The Activity (Pseudomonas aeruginosa [4]) was “inactive”, the Activity (Pseudomonas aeruginosa [5]) was “Active” and the inhibition (Pseudomonas aeruginosa [6]) was “Active”. The Activity (Pseudomonas aeruginosa [7]) was “Non-Toxic”, the Activity (Pseudomonas aeruginosa [8]) was “Active” and the Activity (Pseudomonas aeruginosa [9]) was “Active”. For the same molecule, the Activity (Pseudomonas aeruginosa [10]) was “Active” and the inhibition (Pseudomonas aeruginosa [11]) was “Active”.

With `CCCCCCCCCCCCO[C@@H]1O[C@H](CO)[C@@H](O[C@H]2O[C@H](CO)[C@@H](O)[C@H](O)[C@H]2O)[C@H](O)[C@H]1O` the Activity (Pseudomonas aeruginosa [1]) was “Active”, the Activity (Pseudomonas aeruginosa [2]) was 10 - 60% and the inhibition at 340 µM (Pseudomonas aeruginosa [3]) was 80%. For the same molecule, the Activity (Pseudomonas aeruginosa [4]) was “inactive”, the Activity (Pseudomonas aeruginosa [5]) was “Active” and the Activity (Pseudomonas aeruginosa [12]) was “Active”. The Activity (Pseudomonas aeruginosa [13]) was “Active”, the inhibition (Pseudomonas aeruginosa [6]) was “inactive” and the Activity (Pseudomonas aeruginosa [7]) was “Non-Toxic”. The Activity (Pseudomonas aeruginosa [14]) was “Active”, the Activity (Pseudomonas aeruginosa [8]) was “inactive” and the Activity (Pseudomonas aeruginosa [9]) was “Active”. The Activity (Pseudomonas aeruginosa [15]) was “Active” and the inhibition (Pseudomonas aeruginosa [11]) was “Active”.

`CC(C)CCCC(C)CCCC(C)CCO[C@@H]1O[C@H](CO)[C@@H](O[C@@H]2O[C@H](CO)[C@@H](O)[C@H](O)[C@H]2O)[C@H](O)[C@H]1O` (some centres not stated) was tested, and the Activity (Pseudomonas aeruginosa [1]) was “Active”, the Activity (Pseudomonas aeruginosa [2]) was 10 - 60% and the inhibition at 340 µM (Pseudomonas aeruginosa [3]) was 80%. The Activity (Pseudomonas aeruginosa [4]) was “inactive”, the Activity (Pseudomonas aeruginosa [5]) was “Active” and the inhibition (Pseudomonas aeruginosa [6]) was “Active”. For the same molecule, the Activity (Pseudomonas aeruginosa [8]) was “Active”, the inhibition (Pseudomonas aeruginosa [16]) was “Active” and the Activity (Pseudomonas aeruginosa [9]) was “Active”. For the same molecule, the Activity (Pseudomonas aeruginosa [10]) was “Active” and the inhibition (Pseudomonas aeruginosa [11]) was “Active”.

`CCCOCCCCCCCCO[C@@H]1O[C@H](CO)[C@@H](O[C@H]2O[C@H](CO)[C@@H](O)[C@H](O)[C@H]2O)[C@H](O)[C@H]1O` was tested, and the Activity (Pseudomonas aeruginosa [17]) was “inactive”, the Activity (Pseudomonas aeruginosa [18]) was “inactive” and the Activity (Pseudomonas aeruginosa [13]) was “inactive”. The Activity (Pseudomonas aeruginosa [19]) was “inactive”, the Activity (Pseudomonas aeruginosa [20]) was “inactive” and the inhibition (Pseudomonas aeruginosa [21]) was “inactive”.

For `CC(C)CCCC(C)CCCC(C)CCO[C@@H]1O[C@H](CO)[C@@H](O[C@H]2O[C@H](CO)[C@@H](O)[C@H](O)[C@H]2O)[C@H](O)[C@H]1O` (some centres not stated), the Activity (Pseudomonas aeruginosa [1]) was “Active”, the Activity (Pseudomonas aeruginosa [2]) was 10 - 60% and the inhibition at 340 µM (Pseudomonas aeruginosa [3]) was 80%. The Activity (Pseudomonas aeruginosa [4]) was “inactive”, the Activity (Pseudomonas aeruginosa [5]) was “Active” and the inhibition (Pseudomonas aeruginosa [6]) was “Active”. The Activity (Pseudomonas aeruginosa [7]) was “Non-Toxic”, the Activity (Pseudomonas aeruginosa [8]) was “Active” and the Activity (Pseudomonas aeruginosa [22]) was “Active”. For the same molecule, the inhibition (Pseudomonas aeruginosa [16]) was “Active”, the Activity (Pseudomonas aeruginosa [9]) was “Active” and the Activity (Pseudomonas aeruginosa [10]) was “Active”. The inhibition (Pseudomonas aeruginosa [11]) was “Active”.

With `CCCCCCOCCCCCO[C@@H]1O[C@H](CO)[C@@H](O[C@H]2O[C@H](CO)[C@@H](O)[C@H](O)[C@H]2O)[C@H](O)[C@H]1O` the Activity (Pseudomonas aeruginosa [17]) was “inactive”, the Activity (Pseudomonas aeruginosa [18]) was “inactive” and the Activity (Pseudomonas aeruginosa [13]) was “inactive”. The Activity (Pseudomonas aeruginosa [7]) was “Non-Toxic”, the Activity (Pseudomonas aeruginosa [19]) was “inactive” and the Activity (Pseudomonas aeruginosa [20]) was “inactive”. The inhibition (Pseudomonas aeruginosa [21]) was “inactive”.
